Assay results reported in patent US20240294571A1, “ANALGESIC AND ANESTHETIC PEPTIDES AND OTHER AGENTS” (The Research Foundation for The State University of New York, priority 2019, published 2024).
Ends that are not written are not given here. Peptide text beside a SMILES is read from it. * marks the point of attachment. Myristoyl = CCCCCCCCCCCCCC(=O)*

Assays:
[1] = tested on: C57BL/6 mice; assay: Formalin acute inflammatory pain assay; type: in vivo, mouse
Experimental: (§1) Formalin Assay. Male and female C57BL/6 mice were randomly assigned to either control or experimental groups. Animals were habituated to the formalin testing chamber for 30 minutes or until exploratory behavior ceased the day of experimentation. Following the habituation period, animals were removed from the chamber and given an intraplantar injection of 5% formalin into the ipsilateral hind paw, then immediately placed back into the testing chamber and recorded. Animals were recorded for at least 90 minutes after formalin injection using Active WebCam software. Videos were subsequently scored for number of paw licks, number of paw lifts, and number of full body flinches. All behaviors were scored for a full minute, every five minutes, for 90 minutes of video recording.
as §1, with “Assay:” for “Assay.”, “Animals were habituated to the formalin testing chamber for 30 minutes or until exploratory behavior ceased the day of experimentation.” left out, “All behaviors were scored for a full minute, every five minutes, for 90 minutes of video recording.” left out

[2] = tested on: rat hind paws; assay: Hematoxylin & eosin staining, immune cells and gait in incisional pain model; type: in vivo
Experimental: (A) Animals were treated as previously stated in the Methods section. However, no behavior was collected, instead, animals were sacrificed via transcardial perfusion, and tissue was collected for staining. (Top) Representative images depicting hematoxylin & eosin staining of rat hind paws in scrambled (n=2) and AP2 inhibitory peptide groups (n=2). Localized immune cells can be observed in the dermis in each condition. (Bottom) 24 hours following incision, there is a rapid increase in the number of immune cells. […] (B) Representative images of incision site in animals that received either the scrambled peptide (top) or AP2 inhibitory peptide (bottom). Black arrows highlight significant granuloma-like structures.

[3] = target: AP2 complex (Homo sapiens, UniProt O94973+P53680); conditions: peptide sequence derived from human CD4 di-leucine motif; read-out: affinity for the AP2 complex; cited from earlier work
Chain of AP2 complex (O94973 1-621 limits assumed): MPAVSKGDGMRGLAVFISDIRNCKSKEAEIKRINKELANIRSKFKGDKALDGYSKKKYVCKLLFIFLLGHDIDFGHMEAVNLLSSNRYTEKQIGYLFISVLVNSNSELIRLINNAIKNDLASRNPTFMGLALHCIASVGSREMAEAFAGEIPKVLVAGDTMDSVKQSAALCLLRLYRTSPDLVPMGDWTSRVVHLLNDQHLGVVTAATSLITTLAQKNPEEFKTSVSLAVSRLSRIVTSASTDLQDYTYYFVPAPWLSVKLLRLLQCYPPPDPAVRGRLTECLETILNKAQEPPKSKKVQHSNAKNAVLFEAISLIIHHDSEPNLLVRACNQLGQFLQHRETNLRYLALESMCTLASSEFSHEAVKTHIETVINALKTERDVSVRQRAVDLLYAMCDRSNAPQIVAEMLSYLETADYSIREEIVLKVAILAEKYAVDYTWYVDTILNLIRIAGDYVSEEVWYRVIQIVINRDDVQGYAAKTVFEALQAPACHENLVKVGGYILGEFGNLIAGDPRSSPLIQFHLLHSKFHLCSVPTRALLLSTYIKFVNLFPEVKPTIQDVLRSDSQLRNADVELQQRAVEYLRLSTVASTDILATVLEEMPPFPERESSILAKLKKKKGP
Chain of AP2 complex (P53680 whole entry): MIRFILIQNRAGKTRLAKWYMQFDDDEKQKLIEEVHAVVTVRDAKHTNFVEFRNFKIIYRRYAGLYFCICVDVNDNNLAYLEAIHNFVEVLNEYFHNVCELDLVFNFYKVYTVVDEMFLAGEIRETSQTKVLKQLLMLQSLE
Chain of AP2 complex (P63010 1-591 partner limits assumed): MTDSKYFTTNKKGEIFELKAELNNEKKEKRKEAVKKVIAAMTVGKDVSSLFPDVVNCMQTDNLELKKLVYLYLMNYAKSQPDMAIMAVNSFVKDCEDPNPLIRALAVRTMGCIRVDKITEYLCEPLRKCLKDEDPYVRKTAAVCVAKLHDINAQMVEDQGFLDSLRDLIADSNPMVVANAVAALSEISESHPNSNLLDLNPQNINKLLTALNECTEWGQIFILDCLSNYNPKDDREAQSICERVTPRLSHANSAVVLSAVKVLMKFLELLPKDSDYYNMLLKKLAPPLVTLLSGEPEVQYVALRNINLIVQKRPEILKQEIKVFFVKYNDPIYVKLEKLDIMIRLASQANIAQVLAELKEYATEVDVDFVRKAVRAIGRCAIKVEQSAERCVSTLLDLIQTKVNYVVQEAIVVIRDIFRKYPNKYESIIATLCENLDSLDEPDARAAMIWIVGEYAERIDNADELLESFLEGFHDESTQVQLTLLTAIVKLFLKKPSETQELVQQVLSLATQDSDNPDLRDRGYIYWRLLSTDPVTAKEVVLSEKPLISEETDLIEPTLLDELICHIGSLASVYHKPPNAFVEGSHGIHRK
Chain of AP2 complex (Q96CW1 whole entry partner): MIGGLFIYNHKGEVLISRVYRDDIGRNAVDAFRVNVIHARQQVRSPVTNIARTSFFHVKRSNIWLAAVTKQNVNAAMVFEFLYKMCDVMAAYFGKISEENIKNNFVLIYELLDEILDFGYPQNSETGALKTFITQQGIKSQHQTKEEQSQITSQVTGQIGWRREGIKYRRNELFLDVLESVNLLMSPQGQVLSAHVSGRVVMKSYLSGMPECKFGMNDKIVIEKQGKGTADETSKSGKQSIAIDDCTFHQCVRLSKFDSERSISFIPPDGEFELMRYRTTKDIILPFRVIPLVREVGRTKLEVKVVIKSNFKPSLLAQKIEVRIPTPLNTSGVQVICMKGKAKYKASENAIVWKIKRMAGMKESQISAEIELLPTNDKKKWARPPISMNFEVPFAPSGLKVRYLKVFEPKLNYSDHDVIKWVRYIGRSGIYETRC

[4] = tested on: C57BL/6 mice; assay: CFA-induced inflammatory pain, thermal sensitivity (Hargreaves); type: in vivo, mouse; conditions: for tau (τ), time constant of thermal sensitivity recovery: time in days
Experimental: Freund's Complete Adjuvant Chronic Pain Model. C57BL/6 mice were anesthetized (induction: 3%, maintenance: 2%) and placed in a prone position. After the animals were under a surgical plane of anesthesia, denoted by a loss of reaction to both a tail and hind paw pinch, they received a 20 μL injection of Imject™ Freund's Complete Adjuvant (FCA; Thermo Fisher Scientific) and allowed to recover. Behavior testing resumed 24 hours post FCA injection. Each cohort of animals received FCA from previously unopened, vacuum sealed glass ampules to minimize variations between groups.
(§2) Hargreaves Assay. Animals were placed on an enclosed elevated frosted glass platform (Ugo Baseline) and allowed 30 minutes for habituation. Once exploratory behavior ceased, an automatic Hargreaves apparatus was maneuvered (Ugo Baseline) underneath the hind paw(s) of the animals. Paw withdrawal latency was calculated as the average of four trials per hind limb. Each trial was followed by a 5-minute latency period to allow adequate recovery time between trials.
Complete Freund's Adjuvant Induced Inflammatory Pain: Male and female C57BL/6 mice were randomized into experimental and control groups. In order to maintain consistency in regards to site of injection, mice were anesthetized and injected with a 32-gauge disposable syringe filled with 20 μL of Imject™ Complete Freund's Adjuvant (Thermo Fisher Scientific) into the plantar surface of the right hind paw and allowed to recover. Behavior testing resumed 24 hours post-CFA injection at which point the animals received a 20 μL intraplantar injection of 100 μM (3.154 μg total) lipidated peptidomimetic immediately after the conclusion of day 1 behavioral testing. In order to minimize experimental error between groups, each group of animals received CFA from previously unopened, vacuum-sealed glass ampules ensuring CFA of identical specific activity.
as §2, with “Thermal Sensitivity Testing: Prior to testing, animals were allowed to habituate to the testing room for 1 hour on each day. Animals were” for “Hargreaves Assay. Animals were”, “maneuvered (Ugo Basile) underneath the” for “maneuvered (Ugo Baseline) underneath the”

[5] = tested on: rats; assay: Incisional post-operative pain model, thermal sensitivity; type: in vivo, rat; conditions: for tau (τ), rate of recovery following incision: exponential decay fit, time in days
Experimental: Incisional post-operative pain model: To model post-operative pain, an established rat incisional model was used. In short, male and female rats were randomized into either experimental or control groups. On the day of surgery, the animals were anesthetized and placed into a prone position. Once the animal was under a surgical plane of anesthesia, a 200 μL intraplantar injection of 100 μM (31.54 μg total) lipidated peptidomimetic was made into the ipsilateral hind paw. Afterwards, the animals were returned to their home cage and allowed to recover. On the same day, 6 hours after the pre-injection, the animals were anaesthetized, placed into a prone position, and prepared for incision injury. The ipsilateral hind paw was sterilized using successive swabs of chlorohexidine, 70% ethanol, and iodine. Then, using a size 10 scalpel, a 1 cm long incision was made into the plantar surface of the ipsilateral hind paw. Short, yet firm, strokes were used to make incisions through the skin, fascia, and muscle of the hind paw. Following incision, two 50 μL injections, containing 100 μM (7.885 μg per injection) of the lipidated peptidomimetic, were made into each “half” of the incised plantar muscle. Following injection into the muscle, the skin was sutured using 6/0 silk sutures (Ethicon) in a continuous manner to discourage removal of sutures. Upon conclusion of suturing, four 25 μL injections containing 100 μM (3.9425 μg per injection) of the lipidated peptidomimetic, were made into a “quadrant” adjacent to the incision. Finally, the animals were returned to their home cage and allowed to recover for at least 16 hours.
as §2, with “Thermal Sensitivity Testing: Prior to testing, animals were allowed to habituate to the testing room for 1 hour on each day. Animals were” for “Hargreaves Assay. Animals were”, “maneuvered (Ugo Basile) underneath the” for “maneuvered (Ugo Baseline) underneath the”

[6] = single i.pl. peptide injection (100 μM, 20 μL) 24 h after CFA, n=8
[7] = peptide 100 μM 6 h before and immediately after plantar incision

Compound: RASDKQTLLPNQ (SEQ ID NO: 5) (also: phosphorylated, site not given here) [P4, di-leucine based peptide, parent protein CD3, phosphorylated]
- nocifensive (licking and lifting) behaviors ([1]; di-leucine peptide analogs, 5% formalin, n=3 per analog): significant decreases

Compound: CCCCCCCCCCCCCC(=O)N[C@@H](CCCNC(=N)N)C(=O)N[C@@H](CCSC)C(=O)N[C@@H](CO)C(=O)N[C@@H](CCC(=O)O)C(=O)N[C@H](C(=O)N[C@@H](CCCCN)C(=O)N[C@@H](CCCNC(=N)N)C(=O)N[C@@H](CC(C)C)C(=O)N[C@@H](CC(C)C)C(=O)N[C@@H](CO)C(=O)N[C@@H](CCC(=O)O)C(=O)O)[C@@H](C)CC [AP2 inhibitor peptide, RMSEIKRLLSE (SEQ ID NO: 1)] (Myristoyl-RMSEIKRLLSE-OH; N-terminus and C-terminus assumed)
- granuloma-like clustering of immune cells ([2]; 24 hours following incision, n=2): dense clustering of immune cells
- changes in gait ([2]; after injection of the peptide): did not potentiate any observable changes
- Kd [3]: 650 nM

Compound: IERLSEMSLRK (SEQ ID NO: 6) [scrambled peptide]
- cumulative phase 2 paw licking behavior ([1]; single i.pl. peptide injection (100 μM, 20 μL) 24 h before 5% formalin, n=6): 184±22
- paw withdrawal latency day-1 ([4]; 24 h after CFA, before the single i.pl. peptide injection, n=8): 2.4 ± 0.3 s
- tau (τ), time constant of thermal sensitivity recovery ([4]; all animals, first order exponential decay fit): 4.82
- tau (τ), time constant of thermal sensitivity recovery ([4]; female mice, exponential decay fit): 3.23
- tau (τ), time constant of thermal sensitivity recovery ([4]; male mice, exponential decay fit): 6.45
- paw withdrawal latency day-2 [4, 6]: 3.8 ± 0.5 s
- paw withdrawal latency day-3 [4, 6]: 3.8 ± 0.4 s
- paw withdrawal latency day-5 [4, 6]: 5.5 ± 0.6 s
- paw withdrawal latency day-9 [4, 6]: 7.0 ± 0.8 s
- tau (τ), rate of recovery following incision ([5]; all rats): 9.09
- tau (τ), rate of recovery following incision ([5]; female rats): 11.72
- tau (τ), rate of recovery following incision ([5]; male rats): 7.46
- paw withdrawal latency day-1 [5, 7]: 5.7 ± 0.4 s
- paw withdrawal latency day-2 [5, 7]: 6.4 ± 0.4 s
- paw withdrawal latency day-3 [5, 7]: 7.4 ± 0.5 s
- paw withdrawal latency day-4 [5, 7]: 7.4 ± 0.5 s
- paw withdrawal latency day-5 [5, 7]: 8.3 ± 0.6 s
- paw withdrawal latency day-6 [5, 7]: 8.6 ± 0.5 s
- paw withdrawal latency day-7 [5, 7]: 11.7 ± 0.6 s
- paw withdrawal latency day-8 [5, 7]: 11.4 ± 0.4 s
- paw withdrawal latency day-9 [5, 7]: 12.0 ± 0.6 s
